Where two headings read alike, the source gives them in different places.
Key:
[1] = test system: acute leukemia (WBC count); conditions: cited from earlier work
[2] = test system: relapsed/refractory AML and ALL; experiment: phase II study in acute leukemia: response, blast/WBC reduction, time to progression; type: in vivo, human
Procedure: Each cycle lasted 21 days. Patient could continue treatment on the study in the absence of disease progression or unacceptable toxicity. The next cycle of therapy could start if non-hematologic toxicity from previous cycle recovered to ≤grade 1, and dose delay of up to 3 weeks was allowed for recovery. Permanent dose reduction was required for any ≥grade 3 clinically significant non-hematologic adverse event (70 mg/m^2 → 50 mg/m^2; 50 mg/m^2 → 40 mg/m^2; 40 mg/m^2 → 30 mg/m^2; 30 mg/m^2 → discontinue). To allow for continued treatment of subjects whose cytopenias were due to leukemia and not due to drug toxicity, subsequent cycles of treatment were allowed if absolute neutrophil count (ANC) ≥0.5 × 10^9/L or for ANC <0.5 × 10^9/L but no more than 20 % below the baseline pretreatment levels and platelet count ≥20 × 10^9/L or platelets <20 × 10^9/L but no more than 20 % below the baseline pretreatment levels. Anti-emetic prophylaxis including serotonin-receptor antagonist, metoclopramide, or prochloperazine with or without dexamethasone was allowed. […] Dexamethasone 20 mg IV was given early if symptoms of cytokine release syndrome were observed.
Response was assessed by bone marrow (BM) examination on day 21 of cycles 1 and 2, and every 6 weeks thereafter until complete remission or progressive disease (PD). Response was determined according to the revised recommendations of the International Working Group (IWG) for AML [33]. Toxicities were graded according to the National Cancer Institute Common Terminology Criteria for Adverse Events (NCI CTCAE), version 3.0 (http://ctep.cancer.gov/protocolDevelopment/electronic_applications/docs/ctcaev3.pdf). Hematologic and chemistry profiles were monitored on day 1 and 2 of each cycle or until resolution of acute toxicities and subsequently at least once a week or more frequently depending on the individual patient’s needs.
The primary efficacy endpoint of the study was the ORR, including complete remission (CR), CR with incomplete count recovery (CRi), and partial remission.

[3] = AML patients, all treated subjects

Row | Molecule | patients with >50 % decrease in WBC count ([1]; 1-h bolus for 3 days) | patients with >50 % decrease in WBC count ([1]; hybrid schedule for 3 days) | Beta Posterior Mean (Bayes estimate of the response rate) [2, 3] | Number of Non-responders [2, 3] | Number of Responders [2, 3] | Posterior Probability (This treatment is better) [2, 3] | Observed Response Rate (%) ([2]; AML patients, all treated subjects, frequentist approach) | Median time to progression, Estimate ([2]; all treated AML patients) | Number of Events (progression) ([2]; all treated AML patients) | Hazard Ratio, Estimate (Mylotarg/Dinaciclib) ([2]; time to progression, all treated AML patients)
1 | CN1CC[C@H](c2c(O)cc(O)c3c(=O)cc(-c4ccccc4Cl)oc23)[C@H](O)C1 [flavopiridol] | ~44% | approximately 83% |  |  |  |  |  |  |  | 
2 | gemtuzumab ozogamicin [Mylotarg (GO), reference compound] |  |  | 0.167 | 7 | 1 | 0.801 | 12.500% | 7.57 weeks | 7 | 0.71
